Measurements from patent US20090076029A1 (Palatin Technologies, Inc., priority 2007, published 2009).

Tests used:
[1] = tested on: T1, mutant L250Q MC4-R; assay: Reversal of AgRP inverse agonism in cells expressing mutant L250Q MC4-R; format: cell-based, human; conditions: HEK-293 cells expressing mutant L250Q MC4 receptors; FIG. 8
T1 construct: expressed in transfected cells
From the text: Expression of recombinant mutant hMC4-R in which a glutamine is exchanged for leucine in amino acid position 250 (L250Q) results in production of increased levels of cAMP in the absence of agonist (Vaisse C. et al., Melanocortin-4 receptor mutations are a frequent and heterogeneous cause of morbid obesity. J Clin Invest 106:253-262, 2000). In some cases, reversal of the inverse agonist activity of AgRP was examined in cells that expressed mutant L250Q MC4-R coupled to a high level of constitutive activity. FIG. 8 illustrates the results obtained with the mutant L250Q MC4-R system.

[2] = tested on: T2, MC1-R; assay: cAMP functional assay, B-16 mouse melanoma cells expressing MC1-R; format: cell-based; conditions: cAMP assay at 1 μM
T2 construct: from B-16 mouse melanoma cells (containing MC1-R); endogenous in cells; host or cells: B-16 mouse melanoma cells

[3] = target: T3, MC1-R; assay: Competitive inhibition assay using [I125]-NDP-α-MSH, MC1-R membranes; format: binding, mouse
T3 construct: other: 1 μM compound

[4] = tested on: T4, MC4-R; format: cell-based
T4 construct: expressed in transfected cells; host or cells: HEK-293
Description: Antagonists of AgRP. […] The experimental protocol was essentially as described above for the antagonist assay. […] HEK-293 cells expressing MC4-R were suspended in 10 mM HEPES (pH 7.5) and Earle's Balanced Salt Solution with the phosphodiesterase inhibitor IBMX. The cells were pre-incubated for 30 minutes with the test compounds over a concentration of 0.5 nM to 5000 nM. The cells were then treated with AgRP (100 nM) and incubated for 1 hour. Cells were lysed and cAMP was measured using an EIA kit (Amersham).

SMILES: CC(C)C[C@@H]1CN(C(=O)[C@H](N)Cc2ccc(Cl)cc2Cl)[C@@H](CCCNC(=N)N)CN1CCc1ccc2ccccc2c1 [Example 4, N-{3-[1-[2(R)-Amino-3-(2,4-dichloro-phenyl)-propionyl]-5(R)-isobutyl-4-(2-naphthalen-2-yl-ethyl)-piperazin-2(S)-yl]-propyl}-guanidine]
- effect on AgRP-induced decrease in cAMP levels [1]: reversal of AgRP-induced decrease in the levels of cAMP
- functional status at MC1-R [2]: no intrinsic activity (intrinsic activity below 0.1 (10%) is classified as inactive or having no intrinsic activity)
- Ki [3]: 1360 nM
- Inhibition at 1 μM (NDP-α-MSH) MC1-R ([3]; 1 μM compound): 21%
- activity on AgRP induced inverse agonism [4]: antagonistic activity
